Key:
[1] = target: T1, Amine oxidase [flavin-containing] B (Rattus norvegicus, UniProt P19643); experiment: Ability to inhibit Monoamine oxidase B enzyme
T1 sequence (P19643 whole entry): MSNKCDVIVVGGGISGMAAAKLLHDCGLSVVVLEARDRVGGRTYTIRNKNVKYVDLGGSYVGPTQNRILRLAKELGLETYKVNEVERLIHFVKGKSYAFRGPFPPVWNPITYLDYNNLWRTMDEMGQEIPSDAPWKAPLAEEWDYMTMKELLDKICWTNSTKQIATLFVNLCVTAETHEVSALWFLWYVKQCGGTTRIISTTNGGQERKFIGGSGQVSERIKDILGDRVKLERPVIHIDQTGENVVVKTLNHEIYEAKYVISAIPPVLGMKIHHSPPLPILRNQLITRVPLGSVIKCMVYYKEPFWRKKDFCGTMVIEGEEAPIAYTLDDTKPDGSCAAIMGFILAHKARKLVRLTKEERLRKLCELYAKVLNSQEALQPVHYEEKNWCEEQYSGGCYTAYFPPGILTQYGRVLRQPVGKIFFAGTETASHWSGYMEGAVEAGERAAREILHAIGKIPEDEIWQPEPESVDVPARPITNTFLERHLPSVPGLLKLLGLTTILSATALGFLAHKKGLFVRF

[2] = target: T2, Amine oxidase [flavin-containing] A (Rattus norvegicus, UniProt P21396); experiment: Ability to inhibit Monoamine oxidase A enzyme
T2 sequence (P21396 whole entry): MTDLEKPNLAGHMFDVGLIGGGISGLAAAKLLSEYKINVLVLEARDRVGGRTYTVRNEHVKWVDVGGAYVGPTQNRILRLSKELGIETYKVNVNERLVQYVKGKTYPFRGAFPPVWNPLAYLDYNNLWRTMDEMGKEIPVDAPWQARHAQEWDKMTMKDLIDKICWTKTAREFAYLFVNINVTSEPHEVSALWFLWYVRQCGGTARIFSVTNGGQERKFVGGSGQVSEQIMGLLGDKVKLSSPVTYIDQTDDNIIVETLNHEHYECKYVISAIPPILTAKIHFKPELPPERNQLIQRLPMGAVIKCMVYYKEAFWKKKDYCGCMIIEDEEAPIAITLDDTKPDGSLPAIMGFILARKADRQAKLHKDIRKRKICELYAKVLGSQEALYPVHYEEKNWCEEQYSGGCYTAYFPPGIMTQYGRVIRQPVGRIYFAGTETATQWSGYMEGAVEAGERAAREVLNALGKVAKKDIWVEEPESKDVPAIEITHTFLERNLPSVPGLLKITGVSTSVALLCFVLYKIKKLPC

Row | IC50 [1] | IC50 [2] | Compound
1 | 1 µM | 1 µM | O=C1c2ccccc2-c2nnc(-c3ccc(N4CCCCC4)cc3)cc21
2 | > 5 µM | 10 µM | O=C1c2ccccc2-c2nnc(-c3cccc4ccccc34)cc21
3 | > 0.5 µM | 1 µM | O=C1c2ccccc2-c2nnc(-c3cccc([N+](=O)[O-])c3)cc21
4 | – | 10 µM | Cc1ccccc1-c1cc2c(nn1)-c1ccccc1C2=O
5 | 50 µM | 50 µM | O=C1c2ccccc2-c2nnc3c(c21)-c1ccccc1CC3
6 | 0.71 µM | 1 µM | O=C1c2ccccc2-c2nnc(-c3cc(Cl)cc(Cl)c3)cc21
7 | – | 1 µM | O=C1c2ccccc2-c2nnc(-c3ccc(Br)cc3)cc21
8 | – | 50 µM | O=C1c2ccccc2-c2nnc(CCc3ccccc3)cc21
9 | – | > 50 µM | O=C1c2ccccc2-c2nnc(-c3ccccc3Cl)cc21
10 | – | 25 µM | O=C1c2ccccc2-c2nnc(-c3ccccc3)cc21
11 | – | > 10 µM | O=C1c2ccccc2-c2nnc(-c3ccccc3)c(Cc3ccccc3)c21
12 | – | 1 µM | O=C1c2ccccc2-c2nnc(-c3cccc(Br)c3)cc21
13 | > 25 µM | 25 µM | O=C1c2ccccc2-c2nnc(C(F)(F)F)cc21
14 | 93.7 µM | 34.3 µM | O=C1c2ccccc2-c2nncc(-c3ccccc3)c21
15 | 5.3 µM | > 50 µM | CCOC(=O)c1c(-c2ccccc2)nnc2c1C(=O)c1ccccc1-2
16 | – | 1 µM | O=C1c2ccccc2-c2nnc(-c3ccc(F)c(F)c3)cc21
17 | 10 µM | 10 µM | CCCCOc1ccc(-c2cc3c(nn2)-c2ccccc2C3=O)cc1
18 | 100 µM | 50.5 µM | O=C1c2ccccc2-c2nnc3c(c21)CCCC3
19 | 24.7 µM | 36.8 µM | Nc1ccc(-c2cc3c(nn2)-c2ccccc2C3=O)cc1
20 | – | 1 µM | O=C1c2ccccc2-c2nnc(-c3ccc(C(F)(F)F)cc3)cc21
21 | 27.5 µM | 97.6 µM | O=C1c2ccccc2-c2nnccc21
22 | – | 5 µM | COc1ccc2c(c1)C(=O)c1cc(-c3cccc(C(F)(F)F)c3)nnc1-2

Row | IC50 [1] | IC50 [2] | Compound
23 | – | 30.6 µM | O=C1c2ccccc2-c2nnc(-c3ccc(F)cc3)cc21
24 | – | 25.9 µM | Nc1cccc(-c2cc3c(nn2)-c2ccccc2C3=O)c1
25 | 100 µM | 100 µM | O=C(O)CCc1cc2c(nn1)-c1ccccc1C2=O
26 | > 25 µM | 25 µM | O=C1c2ccccc2-c2nnc(-c3ccccn3)cc21
27 | 50 µM | 50 µM | O=C1c2ccccc2-c2nnc3c(c21)CCc1ccccc1-3
28 | – | 10 µM | O=C1c2ccccc2-c2nnc(-c3cccc(F)c3)cc21
29 | > 25 µM | > 25 µM | O=C1c2ccccc2-c2nnc(-c3cccnc3)cc21
30 | – | 100 µM | O=C1c2ccccc2-c2nnc(-c3ccccc3[N+](=O)[O-])cc21
31 | 50 µM | 50 µM | O=C1c2ccccc2-c2nncc(Cc3ccccc3)c21
32 | 7.7 µM | 10 µM | O=C(c1ccccc1)c1c(-c2ccccc2)nnc2c1C(=O)c1ccccc1-2
33 | 100 µM | 100 µM | O=C(O)c1ccc(-c2cc3c(nn2)-c2ccccc2C3=O)cc1
34 | 1 µM | 1 µM | O=C1c2ccccc2-c2nnc3ccccc3c21
35 | – | > 50 µM | O=C1c2ccccc2-c2nnc(-c3ccc(O)cc3)cc21
36 | – | > 5 µM | O=C1c2ccccc2-c2nnc(-c3cccc(C(F)(F)F)c3)cc21
37 | > 100 µM | 100 µM | Cc1c(-c2ccccc2)nnc2c1C(=O)c1ccccc1-2
38 | – | > 10 µM | CC(=O)c1ccc(-c2cc3c(nn2)-c2ccccc2C3=O)cc1
39 | > 50 µM | 50 µM | COc1ccccc1-c1cc2c(nn1)-c1ccccc1C2=O
40 | > 10 µM | > 10 µM | CC(=O)Nc1ccc(-c2cc3c(nn2)-c2ccccc2C3=O)cc1
41 | 10 µM | 10 µM | O=C1c2ccccc2-c2nnc3ccc4ccccc4c3c21
42 | – | 25 µM | N#Cc1ccc(-c2cc3c(nn2)-c2ccccc2C3=O)cc1
43 | – | > 50 µM | O=C1c2ccccc2-c2nnc(-c3ccco3)cc21
44 | – | 10 µM | COc1ccc(-c2cc3c(nn2)-c2ccccc2C3=O)cc1

Row | IC50 [1] | IC50 [2] | Compound
45 | – | > 1 µM | O=C1c2ccccc2-c2nnc(/C=C/c3ccccc3)cc21
46 | 1 µM | 1 µM | O=C1c2ccccc2-c2nnc(-c3cccs3)cc21
47 | 23.4 µM | – | c1ccc(-c2cc3c(nn2)-c2ccccc2C3)cc1
48 | – | 10 µM | O=C1c2ccccc2-c2nnc(-c3ccc4ccccc4c3)cc21
49 | > 2 µM | 1 µM | O=C1c2ccccc2-c2nnc(-c3cc(C(F)(F)F)cc(C(F)(F)F)c3)cc21
50 | – | 25 µM | O=C1c2ccccc2-c2nnc(-c3ccc([N+](=O)[O-])cc3)cc21
51 | > 1 µM | 1 µM | O=C1c2ccccc2-c2nnc(-c3ccccc3O)cc21
52 | – | > 5 µM | O=C1c2ccccc2-c2nnc(-c3cccc(Cl)c3)cc21
53 | 10 µM | 10 µM | COc1cc(-c2cc3c(nn2)-c2ccccc2C3=O)ccc1O
54 | > 1 µM | 1 µM | O=C1c2ccccc2-c2nnc(-c3cccc(O)c3)cc21
55 | – | 50 µM | Cc1nnc2c(c1-c1ccccc1)C(=O)c1ccccc1-2
56 | – | 100 µM | O=C1c2ccccc2-c2nnc(Cc3ccccc3)cc21
57 | 83.5 µM | 100 µM | Cc1nnc2c(c1Cc1ccccc1)C(=O)c1ccccc1-2
58 | 16.1 µM | > 50 µM | O=C(c1ccccc1)c1cc2c(nn1)-c1ccccc1C2=O
59 | – | 50 µM | COc1cccc(-c2cc3c(nn2)-c2ccccc2C3=O)c1
60 | 1 µM | 1 µM | COc1ccc(-c2cc3c(nn2)-c2ccccc2C3=O)cc1OC
61 | – | > 10 µM | N#Cc1cccc(-c2cc3c(nn2)-c2ccccc2C3=O)c1
62 | 5.1 µM | 5 µM | O=C1c2cc(O)ccc2-c2nnc(-c3cccc(C(F)(F)F)c3)cc21
63 | 18.1 µM | > 20 µM | O=C1c2ccccc2-c2nnc(-c3ccccc3F)cc21
64 | 10 µM | 10 µM | O=C1c2ccccc2-c2nnc(-c3ccccc3C(F)(F)F)cc21
65 | – | > 5 µM | O=C1c2ccccc2-c2nnc(-c3ccc(Cl)cc3)cc21

Row | Compound | IC50 [1] | IC50 [2]
66 | Cc1cc2c(nn1)-c1ccccc1C2=O | – | > 100 µM

From ChEMBL document CHEMBL1128564, “Inhibition of monoamine oxidase-B by 5H-indeno[1,2-c]pyridazines: biological activities, quantitative structure-activity relationships (QSARs) and 3D-QSARs” (J Med Chem, 1995)
